In ChEMBL document CHEMBL4041509, “Structure-activity relationship study of novel 2-aminobenzofuran derivatives as P-glycoprotein inhibitors” (Eur J Med Chem, 2017):

Experiments:
[1] = molecular target: T1, ATP-dependent translocase ABCB1 (Homo sapiens, UniProt P08183); assay: Inhibition of ABCB1 (unknown origin) expressed in Flp-In-293 cells assessed as increase in calcein-AM uptake at 2.5 uM preincubated for 30 mins followed by calcein-AM addition measured after 30 mins by fluorescence spectrometric method relative to control; format: cell-based; details: 0.5 h
T1 sequence (P08183 whole entry): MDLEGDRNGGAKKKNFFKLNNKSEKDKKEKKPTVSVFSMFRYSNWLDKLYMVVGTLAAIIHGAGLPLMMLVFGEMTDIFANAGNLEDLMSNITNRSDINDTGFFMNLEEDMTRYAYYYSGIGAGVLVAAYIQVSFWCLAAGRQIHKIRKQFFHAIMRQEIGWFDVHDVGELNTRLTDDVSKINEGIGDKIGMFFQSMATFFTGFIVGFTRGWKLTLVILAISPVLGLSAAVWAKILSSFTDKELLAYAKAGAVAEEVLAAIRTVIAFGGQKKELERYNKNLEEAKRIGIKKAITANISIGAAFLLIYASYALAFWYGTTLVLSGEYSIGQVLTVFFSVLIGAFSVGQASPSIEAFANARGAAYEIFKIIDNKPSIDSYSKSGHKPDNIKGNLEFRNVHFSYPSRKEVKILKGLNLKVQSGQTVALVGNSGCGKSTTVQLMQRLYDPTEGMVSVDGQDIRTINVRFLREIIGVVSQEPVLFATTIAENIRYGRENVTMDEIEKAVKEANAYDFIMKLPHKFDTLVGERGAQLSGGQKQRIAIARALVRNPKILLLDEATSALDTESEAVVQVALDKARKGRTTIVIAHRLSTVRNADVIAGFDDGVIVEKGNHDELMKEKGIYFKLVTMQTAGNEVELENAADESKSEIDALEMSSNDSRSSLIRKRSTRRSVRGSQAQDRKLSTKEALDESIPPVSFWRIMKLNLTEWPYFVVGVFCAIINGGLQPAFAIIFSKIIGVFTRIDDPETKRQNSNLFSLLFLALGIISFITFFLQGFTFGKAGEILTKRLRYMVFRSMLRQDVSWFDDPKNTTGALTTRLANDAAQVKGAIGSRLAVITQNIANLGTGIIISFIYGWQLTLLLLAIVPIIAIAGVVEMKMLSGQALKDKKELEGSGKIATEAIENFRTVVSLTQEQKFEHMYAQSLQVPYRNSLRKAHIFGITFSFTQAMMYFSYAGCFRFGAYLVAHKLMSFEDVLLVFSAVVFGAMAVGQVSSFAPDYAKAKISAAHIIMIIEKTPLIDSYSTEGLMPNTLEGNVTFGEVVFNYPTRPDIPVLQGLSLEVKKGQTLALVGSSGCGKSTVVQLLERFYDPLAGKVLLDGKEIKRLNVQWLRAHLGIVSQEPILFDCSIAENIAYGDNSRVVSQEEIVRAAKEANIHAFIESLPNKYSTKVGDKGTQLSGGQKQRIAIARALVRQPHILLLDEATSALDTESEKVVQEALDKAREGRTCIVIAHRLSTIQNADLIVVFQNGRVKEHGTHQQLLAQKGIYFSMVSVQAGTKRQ

[2] = molecular target: T1, ATP-dependent translocase ABCB1; assay: Inhibition of ABCB1 (unknown origin) expressed in Flp-In-293 cells assessed as increase in calcein-AM uptake at 5 uM preincubated for 30 mins followed by calcein-AM addition measured after 30 mins by fluorescence spectrometric method relative to control; format: cell-based; details: 0.5 h
[3] = molecular target: T1, ATP-dependent translocase ABCB1; assay: Inhibition of ABCB1 (unknown origin) expressed in Flp-In-293 cells assessed as increase in calcein-AM uptake at 10 uM preincubated for 30 mins followed by calcein-AM addition measured after 30 mins by fluorescence spectrometric method relative to control; format: cell-based; details: 0.5 h
[4] = tested on: HEK293; assay: Potentiation of paclitaxel-induced cytotoxicity against human Flp-In-293 cells at 1 uM by SRB assay relative to control; format: functional
[5] = species on record: Homo sapiens; assay: Inhibition of P-gp in human KBVIN cells assessed as potentiation of paclitaxel-induced cytotoxicity at 1 uM by SRB assay relative to control; format: cell-based
[6] = tested on: HEK293; assay: Potentiation of paclitaxel-induced cytotoxicity against human Flp-In-293 cells at 2.5 uM by SRB assay relative to control; format: functional
[7] = species on record: Homo sapiens; assay: Inhibition of P-gp in human HeLaS3 cells assessed as potentiation of vincristine-induced cytotoxicity at 1 uM by SRB assay relative to control; format: cell-based
[8] = species on record: Homo sapiens; assay: Inhibition of P-gp in human KBVIN cells assessed as potentiation of vincristine-induced cytotoxicity at 2.5 uM by SRB assay relative to control; format: cell-based
[9] = species on record: Homo sapiens; assay: Inhibition of P-gp in human KBVIN cells assessed as potentiation of paclitaxel-induced cytotoxicity at 2.5 uM by SRB assay relative to control; format: cell-based
[10] = species on record: Homo sapiens; assay: Inhibition of P-gp in human HeLaS3 cells assessed as potentiation of doxorubicin-induced cytotoxicity at 1 uM by SRB assay relative to control; format: cell-based
[11] = tested on: HEK293; assay: Potentiation of doxorubicin-induced cytotoxicity against human Flp-In-293 cells at 2.5 uM by SRB assay relative to control; format: functional
[12] = tested on: HEK293; assay: Potentiation of vincristine-induced cytotoxicity against human Flp-In-293 cells at 2.5 uM by SRB assay relative to control; format: functional
[13] = species on record: Homo sapiens; assay: Inhibition of P-gp in human HeLaS3 cells assessed as potentiation of paclitaxel-induced cytotoxicity at 1 uM by SRB assay relative to control; format: cell-based
[14] = species on record: Homo sapiens; assay: Inhibition of P-gp in human KBVIN cells assessed as potentiation of doxorubicin-induced cytotoxicity at 2.5 uM by SRB assay relative to control; format: cell-based
[15] = species on record: Homo sapiens; assay: Inhibition of P-gp in human HeLaS3 cells assessed as potentiation of vincristine-induced cytotoxicity at 2.5 uM by SRB assay relative to control; format: cell-based
[16] = species on record: Homo sapiens; assay: Inhibition of P-gp in human HeLaS3 cells assessed as potentiation of doxorubicin-induced cytotoxicity at 2.5 uM by SRB assay relative to control; format: cell-based
[17] = tested on: HEK293; assay: Potentiation of doxorubicin-induced cytotoxicity against human Flp-In-293 cells at 1 uM by SRB assay relative to control; format: functional
[18] = tested on: HeLa S3; assay: Cytotoxicity against human HeLaS3 assessed as reduction in cell viability by SRB assay; format: cell-based
[19] = tested on: HEK293; assay: Potentiation of vincristine-induced cytotoxicity against human Flp-In-293 cells at 1 uM by SRB assay relative to control; format: functional
[20] = species on record: Homo sapiens; assay: Inhibition of P-gp in human KBVIN cells assessed as potentiation of vincristine-induced cytotoxicity at 1 uM by SRB assay relative to control; format: cell-based
[21] = species on record: Homo sapiens; assay: Inhibition of P-gp in human KBVIN cells assessed as potentiation of doxorubicin-induced cytotoxicity at 1 uM by SRB assay relative to control; format: cell-based

| SMILES | fold change (FC) [1] | fold change (FC) [2] | other results |
| --- | --- | --- | --- |
| COc1ccc(-c2cc(OC(C)=O)c3c(-c4cccnc4)c(N)oc3c2)cc1 | 0.89 | 1.13 | – |
| COc1ccc(-c2cc(OCc3ccccc3)c3c(-c4cccs4)c(N)oc3c2)cc1 | – | 0.81 | fold change (FC) [3]: 0.85 |
| COc1ccc(-c2cc(O)c3c(-c4cccs4)c(N)oc3c2)cc1 | 1.46 | 1.62 | – |
| COc1ccc(-c2cc(O)c3c(-c4cccs4)c(N)oc3c2)cc1OC | – | 1.15 | – |
| COc1ccc(-c2cc(OC(C)=O)c3c(-c4ccc(C)cc4)c(N)oc3c2)cc1 | 1.45 | 1.86 | – |
| COc1ccc(-c2cc(OC(C)=O)c3c(-c4ccc(Cl)cc4)c(N)oc3c2)cc1 | 1.52 | 2.2 | – |
| CC(=O)Oc1cccc2oc(N)c(-c3cccs3)c12 | 1.05 | 1.12 | – |
| COc1ccc(-c2cc(OC(C)=O)c3c(-c4ccccc4OC)c(N)oc3c2)cc1 | 1.32 | 1.49 | – |
| COc1ccc(-c2cc(OC(C)=O)c3c(-c4cccc(Cl)c4)c(N)oc3c2)cc1 | 1.85 | 2.45 | – |
| COc1ccc(CCN(C)CCCC(C#N)(c2ccc(OC)c(OC)c2)C(C)C)cc1OC (stereo unspecified) | – | – | fold change (FC) [4]: 1.49; fold change (FC) [5]: 5.13; fold change (FC) [6]: 1.37; fold change (FC) [7]: 1.27; fold change (FC) [8]: 46.1; fold change (FC) [9]: 22.9; fold change (FC) [10]: 1.33; fold change (FC) [11]: 0.8; fold change (FC) [12]: 9.54; fold change (FC) [13]: 3.91; fold change (FC) [14]: 6.69; fold change (FC) [15]: 1.59; fold change (FC) [16]: 2.82; fold change (FC) [17]: 1.04; IC50 [18]: > 50 µM; fold change (FC) [19]: 1.82; fold change (FC) [20]: 24; fold change (FC) [21]: 1.61 |
| COc1ccc(-c2cc(OCc3ccccn3)c3c(-c4cccs4)c(N)oc3c2)cc1 | – | 3.22 | fold change (FC) [3]: 4.33 |
| COc1ccc(-c2cc(OC(C)=O)c3c(-c4ccccc4)c(N)oc3c2)cc1 | 1.7 | 2.27 | – |
| COc1ccc(-c2cc(OC(C)=O)c3c(-c4ccc5c(c4)OCO5)c(N)oc3c2)cc1 | 1.3 | 1.48 | – |
| COc1ccc(-c2cc(OCc3ncc(C)c(OC)c3C)c3c(-c4cccs4)c(N)oc3c2)cc1 | – | 7.97 | fold change (FC) [3]: 8.38 |
| COc1ccc(-c2cc(OC(C)=O)c3c(-c4cccs4)c(N)oc3c2)cc1OC | 3.75 | 4.35 | – |
| CC(=O)Oc1cc(-c2ccc3c(c2)OCO3)cc2oc(N)c(-c3cccs3)c12 | 0.96 | 0.86 | – |
| COc1ccc(-c2cc(OCc3ccc([N+](=O)[O-])cc3)c3c(-c4cccs4)c(N)oc3c2)cc1 | – | 0.78 | fold change (FC) [3]: 0.85 |
| COc1ccc(-c2cc(OC(C)=O)c3c(-c4ccc(OC)cc4)c(N)oc3c2)cc1 | 1.17 | 1.75 | – |
